Publication PMC11326411, “PET imaging of [52 Mn]Mn-DOTATATE and [52 Mn]Mn-DOTA-JR11” (Research Square, 2024)
Where a SMILES comes first, the peptide text is derived from it. Bridges are numbered along the chain shown (N, C = ends). [ ]: non-standard residue; d: D form. The star is where a group is joined. DOTA = O=C(O)CN1CCN(CC(=O)O)CCN(CC(=O)*)CCN(CC(=O)O)CC1; dPhe(4-NHCONH2) = NC(=O)Nc1ccc(C[C@@H](N)C(=O)O)cc1; Dihydroorotyl(S) = O=C1C[C@@H](C(=O)*)NC(=O)N1; Phe(4-Cl) = N[C@@H](Cc1ccc(Cl)cc1)C(=O)O; Phe(4-NH2) = Nc1ccc(C[C@H](N)C(=O)O)cc1

Key:
SSTR2 + AR42J cells = assay: Cell uptake in AR42J cells; assay type: cell-based, rat
Method: (§1) 1×10^5 AR42J, A549, and MCF-7 cells were seeded onto 24-well plates (n = 6) and incubated at 37°C 48 h before study. […] The cells were incubated at 37°C under 5% CO2 for 2 h. Following incubation, the media was removed, and the cells were washed 3 times with ice-cold PBS. 500 μL of 0.2 M NaOH was added to detach the cells before collection into microcentrifugetubes followed by a 500 μL wash of PBS. Associated radioactivity was counted on a HIDEX (Turku, Finland) AGM gamma counter.
(§2) To normalize the counts to the total protein amount, a BCA protein assay (ThermoFisher Scientific) was performed, and the final data reported in % cell uptake/mg of protein.

in vivo = settings: mouse, total radioactivity, Biodistribution
Method: Subcutaneous tumor xenograft models for AR42J were established by implanting 1×10^6 cells in complete cell media subcutaneously into the right shoulder 3–4 weeks (tumor average diameter of between 5–7 mm) before study.
Mice (n = 4 per group) were anesthetized with 2.5% isoflurane in oxygen and were injected via the retroorbital sinus. After injection, at 4, 24, and 48 h, mice were imaged on a Sofie GNEXT PET/CT small animal scanner (Sofie Biosciences, Dulles, VA, USA). At each time point, 30 min of PET data were acquired followed by a 3-min CT at 80 kVp for anatomical reference. At each time point post imaging, mice were euthanized, and organs were collected, weighed, and counted for associated radioactivity on gamma counter. Radioactivity uptake was calculated as the percent injected dose per gram of tissue (% ID/g).

A549 cells = assay: Cell uptake in A549 cells; assay type: cell-based, human; settings: A549, 0.5 nM, 2 h, 37°C, per mg protein; Fig. 3A study
Method: as §1, §2

[1] = Stability of the radioligands in mouse serum; settings: 37°C, 5 days post incubation, radio-TLC
Method: At the specified time points, 40 μL of serum/radioligand mixture was collected and combined with an equal amount of methanol to separate serum proteins, as described in a previously published protocol on metabolite extraction and protein removal [19]. The supernatant was analyzed using both radio TLC and radio HPLC, as described above to determine the percentage intact complex.

AR42J cells = assay: Cell internalization assay in AR42J cells; assay type: cell-based, rat; settings: for internalization fraction (of total activity): 2 h incubation
Method: At each time point, the media was removed, and cells were washed 3 times with ice-cold PBS. To determine the surface bound fraction, 0.5 mL of 0.1 M citric acid (pH 5) was added to each well and incubated for 5 min. The fraction was collected into a microcentrifuge tube followed by addition of 0.5 mL gentle wash of PBS. To determine the internalized activity, 0.5 mL of 0.2 M NaOH was added to each well and incubated at 37°C for 5 min. This fraction was collected in a separate tube followed by addition of 0.5 mL of PBS wash. The final results were expressed as a percentage of the total activity that was present in each of the two fractions.

MCF-7 cells = assay: Cell uptake in MCF-7 cells; assay type: cell-based, human; settings: MCF-7, 0.5 nM, 2 h, 37°C, per mg protein; Fig. 3A study
Method: as §1, §2

[2] = 2 h incubation at 37°C, comparative study Fig. 4A

Row | tissue uptake at 4 h (in vivo; Blood (μL)) [%ID/g] | tissue uptake at 4 h (in vivo; Fat) [%ID/g] | tissue uptake at 4 h (in vivo; Small Intestines) [%ID/g] | intact complex [1] [%] | SMILES | cell uptake (SSTR2 + AR42J cells; 0.5 nM, 2 h, 37°C, per mg protein, Fig. 3A study) [% /mg] | cell uptake (SSTR2 + AR42J cells; [2]) [%/ mg] | cell uptake (A549 cells) [% /mg] | total activity internalized (AR42J cells) [%] | internalization fraction (of total activity) (AR42J cells) [%] | cell uptake (MCF-7 cells) [% /mg]
1 | 0.91 ± 0.05 | 0.52 ± 0.19 | 1.32 ± 0.46 | > 95 | C[C@@H](O)[C@H](NC(=O)[C@@H]1CSSC[C@H](NC(=O)[C@@H](Cc2ccccc2)NC(=O)CN2CCN(CC(=O)O)CCN(CC(=O)O)CCN(CC(=O)O)CC2)C(=O)N[C@@H](Cc2ccc(O)cc2)C(=O)N[C@H](Cc2c[nH]c3ccccc23)C(=O)N[C@@H](CCCCN)C(=O)N[C@@H]([C@@H](C)O)C(=O)N1)C(=O)O [[^52Mn]Mn-DOTATATE] | 18.25 ± 1.31 | 11.95 ± 0.71 | 4.07 ± 0.88 | 53.13 ± 1.83 | 53.13 ± 1.83 | 2.30 ± 0.20
2 |  |  |  |  | C[C@@H](O)[C@@H]1NC(=O)[C@H](CCCCN)NC(=O)[C@@H](Cc2ccc(NC(N)=O)cc2)NC(=O)[C@H](Cc2ccc(NC(=O)[C@@H]3CC(=O)NC(=O)N3)cc2)NC(=O)[C@H](NC(=O)[C@H](Cc2ccc(Cl)cc2)NC(=O)CN2CCN(CC(=O)O)CCN(CC(=O)O)CCN(CC(=O)O)CC2)CSSC[C@@H](C(=O)N[C@H](Cc2ccc(O)cc2)C(N)=O)NC1=O [[^52Mn]Mn-DOTA-JR11] ({DOTA}-[Phe(4-Cl)][dC][Phe(4-NH2)](Dihydroorotyl(S))[dPhe(4-NHCONH2)]KTC[dY]-NH2; disulfide 2-7 (inferred); C-terminus assumed) |  | 7.13 ± 0.38 |  | 20.85 ± 0.59 | 20.85 ± 0.59 | 
